Experimental data as given in the supplement of paper PMC3493320.

Tested on: NCI-H295R
Assay: IC50 (antiproliferative, ATP content)
Conditions: 48 h
Outline: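 Compounds were pin-transferred at 8 final concentrations between 0.6 nM and 46 µM onto adrenocortical carcinoma cells (1500 per well, 1536-well plates) that had been cultured overnight in serum-free DMEM with ITS. Plates then stood 48 h at 37 °C, 5% CO2, and ATP was detected by CellTiter-Glo luminescence. IC50 was derived from logistic fits of normalised signal, and compounds giving no concentration response were noted as above the top dose.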

Structure (SMILES)	IC50 [µM]
COc1cccc([C@@]2(O)CCCC[C@@H]2CN(C)C)c1	> 46
C[N+]1(C)CCCC(OC(=O)C(O)(c2ccccc2)c2ccccc2)C1.[Br-] (stereo unspecified)	> 46
Cc1cccc(Nc2ccccc2C(=O)O)c1C	> 46
OB(O)O	> 46
CCC1(c2ccccc2)C(=O)NC(=O)N(C)C1=O (stereo unspecified)	> 46
COc1ccc(C(=O)c2ccccc2)c(O)c1	> 46
CC[C@@H](C)[C@H](N)C(=O)O	> 46
CC[C@H]1OC(=O)C[C@@H](O)[C@H](C)[C@@H](O[C@@H]2O[C@H](C)[C@@H](O[C@H]3C[C@@](C)(O)[C@@H](O)[C@H](C)O3)[C@H](N(C)C)[C@H]2O)[C@@H](CC=O)C[C@@H](C)C(=O)/C=C/C(C)=C/[C@@H]1CO[C@@H]1O[C@H](C)[C@@H](O)[C@@H](OC)[C@H]1OC.O=C(O)[C@H](O)[C@@H](O)C(=O)O	> 46
C[C@H]1[C@H](NC(=O)C(=NOC(C)(C)C(=O)O)c2csc(N)n2)C(=O)N1S(=O)(=O)O	> 46
CN1C(=O)CN2CCc3ccccc3C2c2cc(Cl)ccc21 (stereo unspecified)	> 46
CC(C)CN(C[C@@H](O)[C@H](Cc1ccccc1)NC(=O)O[C@H]1CO[C@H]2OCC[C@H]21)S(=O)(=O)c1ccc(N)cc1	> 46
CC(C)(C)NCC(O)c1ccccc1Cl.Cl (stereo unspecified)	> 46
N[C@@H](CSCCCO)C(=O)O	> 46
COc1ccc(C(=O)CCC(=O)O)c2ccccc12	> 46
Cc1cccc(C)c1OCC(C)N.Cl (stereo unspecified)	> 46
CC[N+](C)(CC)CCOC(=O)C(O)(c1ccccc1)C1CCCCC1.[Br-] (stereo unspecified)	> 46
CS(=O)(=O)O.CS(=O)(=O)O.N=C(N)c1ccc(/C=C/c2ccc(C(=N)N)cc2O)cc1	> 46
O=C(O)CN(CCOCCOCCN(CC(=O)O)CC(=O)O)CC(=O)O	> 46
[C@@H]1(O[C@H](CS1)N\2C(\N=C(/C=C/2)N)=O)CO	> 46
NCC(O)CC(=O)O (stereo unspecified)	> 46
Br.CN1[C@@H]2C[C@@H](OC(=O)[C@H](CO)c3ccccc3)C[C@H]1[C@@H]1O[C@@H]12.O.O.O	> 46
C[C@H](CCC(=O)[O-])[C@H]1CC[C@H]2[C@@H]3CC[C@@H]4C[C@H](O)CC[C@]4(C)[C@H]3C[C@H](O)[C@]12C.[Na+]	> 46
CC/C=C\C/C=C\C/C=C\C/C=C\C/C=C\C/C=C/CCC(=O)O	> 46
CC(C)=CCC/C(C)=C/CC/C(C)=C/CC/C=C(\C)CC/C=C(\C)CCC=C(C)C	> 46

Structure (SMILES)	IC50 [µM]
COc1ccc2c(c1OC)C(=O)O[C@@H]2[C@H]1c2c(cc3c(c2OC)OCO3)CCN1C	> 46
CC(=O)Oc1cccc(O)c1	> 46
Cl.NCCS	> 46
CC(=O)OCC1=C(C(=O)O)N2C(=O)[C@@H](NC(=O)Cc3ccccc3)[C@H]2SC1	> 46
Cc1ccccc1N1C(=O)c2cc(S(N)(=O)=O)c(Cl)cc2NC1C (stereo unspecified)	> 46
OC[C@@H](O)[C@H](O)[C@H](O)[C@@H](O)CO	> 46
O[C@@H]3C\C4=C\C[C@@H]1[C@H](CC[C@]2(C)[C@@H](O)CC[C@@H]12)[C@@]4(C)CC3	> 46
CCCCCCCC/C=C\CCCCCCCC(=O)O	> 46
NC1=NC(=O)N2CC12 (stereo unspecified)	> 46
CCOc1ccccc1OCCN[C@H](C)Cc1ccc(OC)c(S(N)(=O)=O)c1.Cl	> 46
CC[N+](CC)(CC)CCC(O)(c1ccccc1)C1CCCCC1.[Cl-] (stereo unspecified)	> 46
Cc1cccc(C)c1NC(=O)c1ccccc1C(=O)O	> 46
C=C[C@H]1CN2CCC1C[C@@H]2[C@@H](O)c1ccnc2ccccc12 (stereo partly specified)	> 46
CC[C@H](C)[C@H](NC(=O)[C@H](Cc1ccccc1)NC(=O)[C@H](C)NC(=O)[C@H](CC(=O)O)NC(=O)[C@H](CCCCN)NC(=O)[C@H](CO)NC(=O)[C@@H]1CCCN1C(=O)[C@@H]1CCC(=O)N1)C(=O)NCC(=O)N[C@@H](CC(C)C)C(=O)N[C@@H](CCSC)C(N)=O	> 46
CCCCCCCCCCCC(=O)[O][Sn]([CH2]CCC)([CH2]CCC)[O]C(=O)CCCCCCCCCCC	> 46
O=c1oc2cc(O)ccc2s1	> 46
O=P([O-])([O-])OP(=O)([O-])[O-].[Na+].[Na+].[Na+].[Na+]	> 46
N=C(N)NC(=O)c1nc(Cl)c(N)nc1N	> 46
CCCCCCCC(=O)O	> 46
O=c1oc2c(O)c(O)cc3c(=O)oc4c(O)c(O)cc1c4c23	> 46
CC(C)c1ncc([N+](=O)[O-])n1C	> 46
CN(C(=O)CN(CCO)CC(=O)N(C)C(C)(C)Cc1ccccc1)C(C)(C)Cc1ccccc1	> 46
CN1C(=O)[C@@H](NC(=O)c2cc3ccccc3[nH]2)N=C(c2ccccc2)c2ccccc21	> 46
Cc1c(C)n(Cc2ccccc2)c2ccc(C(=O)OCCN(C)C)cc12	> 46

Structure (SMILES)	IC50 [µM]
CC(C)NCC1CCc2cc(CO)c([N+](=O)[O-])cc2N1 (stereo unspecified)	> 46
F[C@@]([C@](C=C4)(C)C3=CC4=O)2[C@@H](O)C[C@]([C@](C5)([H])[C@@]([H])2CC3)(C)[C@@]1([C@](CO)=O)[C@@H]5OC(C)(C)O1	> 46
Cc1ccc(-c2ncc(Cl)cc2-c2ccc(S(C)(=O)=O)cc2)cn1	> 46
N[C@@H]1CONC1=O	> 46
N[C@@]([C@H]([C@H]1O)O[C@H]([C@@H]([C@H]1O)O)O)=O	> 46
CC(C)[N+](C)(CCOC(=O)C1c2ccccc2Oc2ccccc21)C(C)C.[Br-]	> 46
O=C1[C@](NC(C3S\C(S3)=C(C(O)=O)/C(N)=O)=O)(OC)[C@]2([H])N1C(C(O)=O)=C(CSC4=NN=NN4C)CS2 (stereo partly specified)	> 46
CCCCC(C)(O)C/C=C/[C@H]1[C@H](O)CC(=O)[C@@H]1CCCCCCC(=O)OC (stereo partly specified)	> 46
CC(=O)CCCCn1c(=O)c2c(ncn2C)n(C)c1=O	> 46
O=C1C2=C(C=C(C=C2O)O)O/C(=C\1O)C3=CC(=C(C=C3)O)O.O.O	> 46
O=C1c2ccccc2S(=O)(=O)N1CCCCN1CCN(c2ncccn2)CC1	> 46
CC(C)N(CCC(C(N)=O)(c1ccccc1)c1ccccn1)C(C)C (stereo unspecified)	> 46
CCCCCCCCCCCC(=O)OCC(O)CO (stereo unspecified)	> 46
N[C@@H](COP(=O)(O)O)C(=O)O	> 46
CCCCc1ncc(/C=C(\Cc2cccs2)C(=O)O)n1Cc1ccc(C(=O)O)cc1.CS(=O)(=O)O	> 46
CC[C@H](NC(C)C)[C@H](O)c1ccc(O)c2[nH]c(=O)ccc12	> 46
CC(=O)SC[C@H](Cc1ccccc1)C(=O)NCC(=O)OCc1ccccc1	> 46
NCCc1ccc(O)cc1	> 46
Cc1cccc(C)c1NC(=O)CN1CCN(CCCC(c2ccc(F)cc2)c2ccc(F)cc2)CC1	> 46
CCN(CC)CCC(=O)N1c2ccccc2Sc2ccc(C(F)(F)F)cc21	> 46
COc1ccccc1N1CCNCC1.Cl	> 46
CC(C)(C)c1ccc(O)cc1	> 46
CC(C)[C@@H](N)C(=O)O	> 46
CNC(C)(C)Cc1ccccc1.CNC(C)(C)Cc1ccccc1.O=S(=O)(O)O	> 46

Structure (SMILES)	IC50 [µM]
NS(=O)(=O)c1cc(C(=O)O)c(NCc2ccco2)cc1Cl	> 46
O=C(C)O[C@@](CC3)([C@](C)=O)[C@]2(C)[C@]3([H])[C@]1([H])C=C(C)C([C@@](CC4)(C)[C@]([H])1CC2)=CC4=O	> 46
Nc1cc(c(cc1S(=O)(N)=O)S(N)(=O)=O)C(/Cl)=C(/Cl)Cl	> 46
C[N+]1(C)[C@@H]2CC[C@H]1C[C@@H](OC(=O)C(CO)c1ccccc1)C2.O=[N+]([O-])[O-] (stereo partly specified)	> 46
CCOC(=O)c1c(C)n(C)c2ccc(O)cc12	> 46
C[S+](C)CCC(N)C(=O)O.[Cl-] (stereo unspecified)	> 46
O=C(O)c1cccc(-c2noc(-c3ccccc3F)n2)c1	> 46
CC(C)NCC(O)c1ccccc1Cl.Cl (stereo unspecified)	> 46
COc1ccc(C[C@@H](C)NC[C@H](O)c2ccc(O)c(NC=O)c2)cc1.COc1ccc(C[C@@H](C)NC[C@H](O)c2ccc(O)c(NC=O)c2)cc1.O=C(O)/C=C/C(=O)O	> 46
CC1=C(C=C/C(C)=C/C=C/C(C)=C/CO)C(C)(C)CCC1	> 46
CC(=O)OCC1=C(C(=O)O)N2C(=O)[C@@H](NC(=O)Cc3cccs3)[C@H]2SC1	> 46
CCOc1ccc2nc(S(N)(=O)=O)sc2c1	> 46
O[C@]([C@@H](CC3)CC[C@@]3(C#N)C(C=C1OC2CCCC2)=CC=C1OC)=O	> 46
COCC(=O)N(c1c(C)cccc1C)C(C)C(=O)OC (stereo unspecified)	> 46
Cc1c(C(C)C)c(=O)n(-c2ccccc2)n1C	> 46
CCOC(=O)c1ccc(OC(=O)CCCCCNC(=N)[NH3+])cc1.CS(=O)(=O)[O-]	> 46
CCOC(=O)c1cccc(N)c1.CS(=O)(=O)O	> 46
CC(=O)Oc1ccccc1C(=O)O	> 46
CN1CCN(C(c2ccccc2)c2ccccc2)CC1.Cl.Cl	> 46
CCCCCCC[N+](CC)(CC)CCCCc1ccc(Cl)cc1.Cc1ccc(S(=O)(=O)[O-])cc1	> 46
[O]=[Bi][O][Bi]=[O]	> 46
CCCN1CCC[C@@H]2Cc3n[nH]cc3C[C@H]21	> 46
CN(C)[C@@H]1C(O)=C(C(N)=O)C(=O)[C@@]2(O)C(O)=C3C(=O)c4c(O)ccc(Cl)c4[C@@](C)(O)[C@H]3C[C@@H]12.Cl	> 46
CO/N=C(\C(=O)N[C@@H]1C(=O)N2C(C(=O)[O-])=CCS[C@H]12)c1csc(N)n1.[Na+]	> 46
